Conditions: 343.15 K, Liquid, Vibrating tube method

CCCCCCC(=O)OCC(COC(=O)CCCCCC)(COC(=O)CCCCCC)COC(=O)CCCCCC [pentaerythritol tetraheptanoate]
Conditions	mass density [kg/m3]
6063.9 kPa	945.1
6075.5 kPa	945.2
6087.4 kPa	945.2
6099.2 kPa	945.2
6113 kPa	945.2
6125.1 kPa	945.2
6137.2 kPa	945.3
6149.3 kPa	945.1
6163.7 kPa	945.3
6175.6 kPa	945.3
6187.7 kPa	945.2
6199.8 kPa	945.2
6214.5 kPa	945.3
6226.9 kPa	945.3
6239.4 kPa	945.3
6253.9 kPa	945.3
6266.1 kPa	945.3
6278.6 kPa	945.3
6293.3 kPa	945.3
6306.2 kPa	945.3
6319 kPa	945.5
6332 kPa	945.3
6347 kPa	945.4
6359.8 kPa	945.5
6372.6 kPa	945.4
6385.6 kPa	945.4
6400.6 kPa	945.4
6413.9 kPa	945.4
6426.9 kPa	945.3
6442.4 kPa	945.3
6456.1 kPa	945.4
6469 kPa	945.5
6482.7 kPa	945.4
6499.1 kPa	945.6
6512.8 kPa	945.5
6525.9 kPa	945.5
6541.8 kPa	945.6
6555.1 kPa	945.6
6568.9 kPa	945.6
6585.3 kPa	945.5
6598.8 kPa	945.5
6612.5 kPa	945.5
6629.2 kPa	945.6
6643.2 kPa	945.5
6657.6 kPa	945.7
6671.9 kPa	945.5
6687.1 kPa	945.5
6704 kPa	945.6
6718.4 kPa	945.6
6732.5 kPa	945.6
6747.4 kPa	945.7
6764.3 kPa	945.8
6779.2 kPa	945.8
6793.5 kPa	945.7
6811.1 kPa	945.6
6825.8 kPa	945.6
6840.7 kPa	945.8
6855.9 kPa	945.7
6874.2 kPa	945.8
6887.1 kPa	945.8
6904.9 kPa	945.9
6920.2 kPa	945.8
6935.6 kPa	945.8
6953.6 kPa	945.8
6968.8 kPa	945.9
6984.8 kPa	945.8
7000.2 kPa	945.7
7019.2 kPa	946
7034.9 kPa	945.7
7050.8 kPa	945.8
7069.3 kPa	945.8
7085.7 kPa	945.9
7101.8 kPa	945.9
7117.8 kPa	946
7137.2 kPa	945.9
7153.2 kPa	946
7169.6 kPa	945.9
7186 kPa	945.8
7205.5 kPa	945.9
7221.8 kPa	946
7241.8 kPa	946
7258.6 kPa	946
7275.1 kPa	945.9
7292.1 kPa	946.1
7312.3 kPa	946.1
7329.7 kPa	946.2
7347 kPa	946.1
7364.6 kPa	946.1
7385.1 kPa	946.1
7402.4 kPa	946.2
7420 kPa	946.2
7437.8 kPa	946.2
7458.7 kPa	946.2
7476.1 kPa	946.2
7494.2 kPa	946.1
7515.3 kPa	946.3
7533.4 kPa	946.1
7551.9 kPa	946.3
7570.4 kPa	946.3
7592.1 kPa	946.3
7610.3 kPa	946.4
7628.9 kPa	946.4
7650.8 kPa	946.3
7669.1 kPa	946.3
7688.1 kPa	946.3
7710.2 kPa	946.3
7729.2 kPa	946.3
7748.3 kPa	946.4
7767.5 kPa	946.4
7790.8 kPa	946.4
7810.5 kPa	946.5
7830.3 kPa	946.5

From the NIST ThermoML archive (doi:10.1021/je060271a)
